Test results as given in patent publication US10125100B2, “Kinase inhibitors” (Respivert Limited, priority 2014, dated 2018).

Tests used:
c-Src = c-Src (Homo sapiens (Human), UniProt P12931); experiment: c-Src enzyme inhibition, Z-LYTE FRET; assay type: biochemical
Method in brief: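 Human Syk and c-Src (enzyme at 2000 or 3000 ng/mL respectively, pre-dilution) preincubated 2 hr at RT with compound at 1, 0.1, 0.01 or 0.001 μg/mL; FRET peptide added with ATP (60 μM Syk, 800 μM c-Src; solution concentrations), 1 hr. Protease development 1 hr; phosphorylation from coumarin/fluorescein emission ratio.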

Syk = Syk (Homo sapiens (Human), UniProt P43405); experiment: Syk enzyme inhibition, Z-LYTE FRET; assay type: biochemical
Method in brief: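 Syk or c-Src enzyme (3000 or 2000 ng/mL solutions) was preincubated 2 h at RT with compound solutions at 1, 0.1, 0.01 or 0.001 µg/mL. Z-LYTE FRET peptide (8 µM solution) and ATP (800 µM solution for c-Src, 60 µM for Syk) were then added for 1 h, followed by protease development for 1 h. Phosphorylation was read as the coumarin/fluorescein emission ratio.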

Jurkat cells = experiment: (r) Cell cytotoxicity assay; assay type: cell-based, human; conditions: 24 hours
Method in brief: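 Jurkat cells (1×10^5/well, RPMI + 10% FBS) exposed to compound at 20, 5 or 1 μg/mL final (1.0% DMSO control) for 24 h at 37° C., 5% CO2. Then stained with 7.5 μg/mL propidium iodide for 15 min. % viability = PI-negative cells by flow cytometry, normalized to DMSO.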

mitosis in PBMCs = experiment: (g) Cell mitosis assay; assay type: cell-based; conditions: Homo sapiens, PBMC, 5 μg/mL
Method: Peripheral blood mononucleocytes (PBMCs) from healthy subjects are separated from whole blood (Quintiles, London, UK) using a density gradient (Histopaque®-1077, Sigma-Aldrich, Poole, UK). The PBMCs (3 million cells per sample) are subsequently treated with 2% PHA (phytohaemagglutinin, Sigma-Aldrich, Poole, UK) for 48 hr, followed by a 20 hr exposure to varying concentrations of test compounds. At 2 hr before collection, PBMCs are treated with demecolcine (0.1 μg/mL; Invitrogen, Paisley, UK) to arrest cells in metaphase. To observe mitotic cells, PBMCs are permeabilized and fixed by adding Intraprep (50 μL; Beckman Coulter, France), and stained with anti-phospho-histone 3 ([…]; #9701; Cell Signalling, Danvers, Mass.) and propidium iodide (1 mg/mL; Sigma-Aldrich, Poole, UK) as previously described (Muehlbauer P. A. and Schuler M. J., Mutation Research, 2003, 537:117-130). Fluorescence is observed using an ATTUNE flow cytometer (Invitrogen, Paisley, UK), gating for lymphocytes.

p38 MAPKα (MAPK14) = p38 MAPKα (MAPK14) (Homo sapiens (Human), UniProt Q16539); experiment: p38 MAPKα enzyme inhibition (Method 2), Z-LYTE FRET; assay type: biochemical
p38 MAPKα (MAPK14), sequence (Q16539 whole entry): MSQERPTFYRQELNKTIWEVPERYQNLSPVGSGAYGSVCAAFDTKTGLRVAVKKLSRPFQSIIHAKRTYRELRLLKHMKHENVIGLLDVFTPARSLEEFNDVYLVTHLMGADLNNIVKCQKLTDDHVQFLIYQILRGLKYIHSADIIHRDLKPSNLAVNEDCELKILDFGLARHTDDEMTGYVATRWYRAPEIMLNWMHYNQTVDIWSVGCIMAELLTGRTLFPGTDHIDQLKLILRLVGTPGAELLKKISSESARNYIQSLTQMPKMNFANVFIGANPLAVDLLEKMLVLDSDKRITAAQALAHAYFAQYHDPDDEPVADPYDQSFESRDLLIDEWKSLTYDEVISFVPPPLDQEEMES
Method in brief: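 Enzyme (200 ng/mL solution) was preincubated 2 h at RT with compound solutions of 1, 0.1, 0.01 or 0.001 μg/mL, and inhibition was read indirectly via MAPKAP-K2 activation/phosphorylation. After a 1 h RT reaction and 1 h protease development, phosphorylation was derived from the coumarin/fluorescein emission ratio.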

c-Src, sequence (P12931 whole entry, looked up): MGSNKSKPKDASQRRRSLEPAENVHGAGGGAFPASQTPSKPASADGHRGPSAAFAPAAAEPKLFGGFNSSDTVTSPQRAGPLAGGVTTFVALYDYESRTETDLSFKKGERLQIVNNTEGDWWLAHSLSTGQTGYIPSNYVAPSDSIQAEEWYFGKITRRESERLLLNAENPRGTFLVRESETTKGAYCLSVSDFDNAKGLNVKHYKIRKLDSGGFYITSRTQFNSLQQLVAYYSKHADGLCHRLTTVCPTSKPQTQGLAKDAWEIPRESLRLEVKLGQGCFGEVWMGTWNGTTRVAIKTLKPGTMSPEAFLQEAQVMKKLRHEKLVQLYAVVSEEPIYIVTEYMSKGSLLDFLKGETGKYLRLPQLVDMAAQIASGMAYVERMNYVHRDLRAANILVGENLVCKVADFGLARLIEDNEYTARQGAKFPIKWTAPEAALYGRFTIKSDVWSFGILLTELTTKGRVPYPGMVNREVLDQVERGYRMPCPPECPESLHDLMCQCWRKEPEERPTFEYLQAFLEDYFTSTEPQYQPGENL

Row | SMILES | IC50 (c-Src) [µM] | IC50 (Syk) [µM] | % Viability at 1 μg/mL (Jurkat cells) [%] | % Viability at 5 μg/mL (Jurkat cells) [%] | % Viability at 20 μg/mL (Jurkat cells) [%] | inhibition at 5 µg/mL (mitosis in PBMCs) [%] | IC50 (p38 MAPKα (MAPK14)) [µM]
1 | COc1cc(Nc2cc(Oc3ccc(NC(=O)Nc4cc(C(C)(C)C)cc(NS(C)(=O)=O)c4OC)c4ccccc34)ccn2)cc(OC)c1C(=O)NCCN1CCOCC1 [17(ae), 4-[[4-[[4-[[5-tert-butyl-3-(methanesulfonamido)-2-methoxy-phenyl]carbamoylamino]-1-naphthyl]oxy]-2-pyridyl]amino]-2,6-dimethoxy-N-(2-morpholinoethyl)benzamide] | 0.031 | 0.112 | 93.1 | 98.5 | 92.9 | 30.6 | 0.01
2 | COc1cc(Nc2cc(Oc3ccc(NC(=O)Nc4cc(C(C)(C)C)cc(NS(C)(=O)=O)c4OC)c4ccccc34)ccn2)ccc1C(=O)NCCCN1CCOCC1 [17(b), 4-[[4-[[4-[[5-tert-butyl-3-(methanesulfonamido)-2-methoxy-phenyl]carbamoylamino]-1-naphthyl]oxy]-2-pyridyl]amino]-2-methoxy-N-(3-morpholinopropyl)benzamide] | 0.02 | 0.098 | 102.8 | 93.8 | 79.3 | 58.9 | 0.052
3 | COc1cc(Nc2cc(Oc3ccc(NC(=O)Nc4cc(C(C)(C)C)cc(NS(C)(=O)=O)c4OC)c4ccccc34)ccn2)ccc1C(=O)NCCN1CCSCC1 [17(l), 4-[[4-[[4-[[5-tert-butyl-3-(methanesulfonamido)-2-methoxy-phenyl]carbamoylamino]-1-naphthyl]oxy]-2-pyridyl]amino]-2-methoxy-N-(2-thiomorpholinoethyl)benzamide] | 0.116 | 0.389 | 102.8 | 102.7 | 102.9 | 24.9 | 0.223
4 | COc1cc(Nc2cc(Oc3ccc(NC(=O)Nc4cc(C(C)(C)C)cc(NS(C)(=O)=O)c4OC)c4ccccc34)ccn2)ccc1C(=O)NCCN1CCCCC1 [17(p), 4-[[4-[[4-[[5-tert-butyl-3-(methanesulfonamido)-2-methoxy-phenyl]carbamoylamino]-1-naphthyl]oxy]-2-pyridyl]amino]-2-methoxy-N-[2-(1-piperidyl)ethyl]benzamide] | 0.021 | 0.172 | 102.1 | 49.9 | 1.5 | 92 | 0.02
5 | COc1cc(Nc2cc(Oc3ccc(NC(=O)Nc4cc(C(C)(C)C)cc(NS(C)(=O)=O)c4OC)c4ccccc34)ccn2)ccc1C(=O)NCCN1CCS(=O)(=O)CC1 [17(r), 4-[[4-[[4-[[5-tert-butyl-3-(methanesulfonamido)-2-methoxy-phenyl]carbamoylamino]-1-naphthyl]oxy]-2-pyridyl]amino]-N-[2-(1,1-dioxo-1,4-thiazinan-4-yl)ethyl]-2-methoxy-benzamide] | 0.037 | 0.102 | – | – | – | 36.6 | 0.119
6 | COc1cc(Nc2cc(Oc3ccc(NC(=O)Nc4cc(C(C)(C)C)cc(NS(C)(=O)=O)c4OC)c4ccccc34)ccn2)ccc1C(=O)N[C@@H](C)CN1CCOCC1 [17(v), 4-[[4-[[4-[[5-tert-butyl-3-(methanesulfonamido)-2-methoxy-phenyl]carbamoylamino]-1-naphthyl]oxy]-2-pyridyl]amino]-2-methoxy-N-[(1S)-1-methyl-2-morpholino-ethyl]benzamide] | 0.043 | 0.232 | – | – | – | 34.4 | 0.116
7 | COc1cc(Nc2cc(Oc3ccc(NC(=O)Nc4cc(C(C)(C)C)cc(NS(C)(=O)=O)c4OC)c4ccccc34)ccn2)ccc1C(=O)NCCN1CCOCC1 [Example 2, 4-((4-((4-(3-(5-(tert-Butyl)-2-methoxy-3-(methylsulfonamido)phenyl)ureido)naphthalen-1-yl)oxy)pyridin-2-yl)amino)-2-methoxy-N-(2-morpholinoethyl)benzamide] | 0.02 | 0.172 | – | – | – | 48 | 0.02
8 | COc1cc(Nc2cc(Oc3ccc(NC(=O)Nc4cc(C(C)(C)C)cc(C(N)=O)c4OC)c4ccccc34)ccn2)ccc1C(=O)NCCN1CCOCC1 [Example 4, 4-((4-((4-(3-(5-(tert-Butyl)-3-carbamoyl-2-methoxyphenyl)ureido)naphthalen-1-yl)oxy)pyridin-2-yl)amino)-2-methoxy-N-(2-morpholinoethyl)benzamide] | 0.037 | 0.277 | – | – | – | 46.2 | 0.121
9 | COCCOCCOCCNC(=O)c1ccc(Nc2cc(Oc3ccc(NC(=O)Nc4cc(C(C)(C)C)cc(NS(C)(=O)=O)c4OC)c4ccccc34)ccn2)cc1OC [Example 5, 4-((4-((4-(3-(5-(tert-Butyl)-2-methoxy-3-(methylsulfonamido)phenyl)ureido)naphthalen-1-yl)oxy)pyridin-2-yl)amino)-2-methoxy-N-(2-(2-(2-methoxyethoxy)ethoxy)ethyl)benzamide] | 0.031 | 0.187 | – | – | – | 27.7 | 0.119
10 | COCCOCCOCCNC(=O)c1ccc(Nc2cc(Oc3ccc(NC(=O)Nc4cc(C(C)(C)C)cc(C(N)=O)c4OC)c4ccccc34)ccn2)cc1OC [Example 6, 4-((4-((4-(3-(5-(tert-Butyl)-3-carbamoyl-2-methoxyphenyl)ureido)naphthalen-1-yl)oxy)pyridin-2-yl)amino)-2-methoxy-N-(2-(2-(2-methoxyethoxy)ethoxy)ethyl)benzamide] | 0.036 | 0.315 | – | – | – | 28.8 | 0.137
11 | COc1cc(Nc2cc(Oc3ccc(NC(=O)Nc4cc(C(C)(C)C)cc(NS(C)(=O)=O)c4OC)c4ccccc34)ccn2)ccc1C(=O)NCCN1CC[S+]([O-])CC1 [Example 7, 4-((4-((4-(3-(5-(tert-Butyl)-2-methoxy-3-(methylsulfonamido)phenyl)ureido)naphthalen-1-yl)oxy)pyridin-2-yl)amino)-2-methoxy-N-(2-(1-oxidothiomorpholino)ethyl)benzamide] | 0.021 | 0.107 | – | – | – | 59.9 | 0.059
12 | COc1c(NC(=O)Nc2ccc(Oc3ccnc(Nc4ccc(OCCN5CCOCC5)c(C#N)c4)c3)c3ccccc23)cc(C(C)(C)C)cc1NS(C)(=O)=O [Example 9, N-(5-(tert-Butyl)-3-(3-(4-((2-((3-cyano-4-(2-morpholinoethoxy)phenyl)amino)pyridin-4-yl)oxy)naphthalen-1-yl)ureido)-2-methoxyphenyl)methanesulfonamide] | 0.316 | > 1.28 | – | – | – | 29.8 | 0.197
13 | COCCOCCOCC[S+]([O-])c1ccc(Nc2cc(Oc3ccc(NC(=O)Nc4cc(C(C)(C)C)cc(NS(C)(=O)=O)c4OC)c4ccccc34)ccn2)cc1OC (centres unmarked) [Example 11, N-(5-(tert-Butyl)-2-methoxy-3-(3-(4-((2-((3-methoxy-4-((2-(2-(2-methoxyethoxy)ethoxy)ethyl)sulfinyl)phenyl)amino)pyridin-4-yl)oxy)naphthalen-1-yl)ureido)phenyl)methanesulfonamide] | 0.076 | 0.318 | – | – | – | 26.6 | 0.035
14 | COCCOCCOCCS(=O)(=O)c1ccc(Nc2cc(Oc3ccc(NC(=O)Nc4cc(C(C)(C)C)cc(NS(C)(=O)=O)c4OC)c4ccccc34)ccn2)cc1OC [Example 12, 1-[5-tert-Butyl-3-(methanesulfonamido)-2-methoxy-phenyl]-3-[4-[[2-[3-methoxy-4-[2-[2-(2-methoxyethoxy)ethoxy]ethylsulfonyl]anilino]-4-pyridyl]oxy]-1-naphthyl]urea] | 0.209 | 0.831 | 74.5 | 81.8 | 82.9 | 22.1 | 0.023
